Test results published in ChEMBL document CHEMBL1909046, “DrugMatrix in vitro pharmacology data”.
*1 amine or outer side, *2 acyl side, *3 side chain or, on linkers, in order; H or OH if unused. Where a SMILES comes first, the peptide text is derived from it. Bridges are numbered along the chain shown (N, C = ends). Roman numbers before positions name the chains, in order. [ ]: non-standard residue; d: D form. Actinocin(1to9) = Cc1c2oc3c(C)ccc(C(=O)[*:2])c3nc-2c(C(=O)[*:1])c(N)c1=O; NMeV = CN[C@H](C(=O)O)C(C)C; Sar = CNCC(=O)O

What was measured:
B2 bradykinin receptor = molecular target: T1, B2 bradykinin receptor (Homo sapiens, UniProt P30411); format: cell membranes, Membrane; details: chem-1; further: in other assays of this panel Not Active means under 50% inhibition at 10 µM
T1 sequence (P30411 whole entry): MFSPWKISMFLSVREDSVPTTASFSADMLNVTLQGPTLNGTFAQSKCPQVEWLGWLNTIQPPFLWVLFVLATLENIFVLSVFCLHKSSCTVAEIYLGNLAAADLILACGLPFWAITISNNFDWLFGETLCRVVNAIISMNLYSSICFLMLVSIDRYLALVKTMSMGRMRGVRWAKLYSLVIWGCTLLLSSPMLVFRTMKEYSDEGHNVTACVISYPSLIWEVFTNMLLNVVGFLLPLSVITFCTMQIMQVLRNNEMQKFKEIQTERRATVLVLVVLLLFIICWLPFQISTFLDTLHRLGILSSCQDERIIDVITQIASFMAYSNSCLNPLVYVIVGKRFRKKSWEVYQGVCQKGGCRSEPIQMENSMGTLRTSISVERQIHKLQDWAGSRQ

[1] = molecular target: 5-hydroxytryptamine receptor 2B (Homo sapiens, UniProt P41595); format: cell membranes, CHO-K1, Membrane; details: for Ki: read-out: Ki; on all read-outs here: in other assays of this panel Not Active means under 50% inhibition at 10 µM
[2] = DRUGMATRIX: Glutamate, NMDA, Agonism radioligand binding (ligand: [3H] CGP-39653); format: cell membranes, Rattus norvegicus, Wistar, Cerebral cortex, Membrane; details: Not Active = under 50% inhibition at 10 µM
Carbonic anhydrase 2 = Carbonic anhydrase 2 (Homo sapiens, UniProt P00918); test: DRUGMATRIX: Carbonic Anhydrase II enzyme inhibition (substrate: 4-Nitrophenyl acetate (4-NPA)); format: tissue-based, Erythrocyte; details: erythrocyte; Not Active = under 50% inhibition at 10 µM
[3] = DRUGMATRIX: Atrial Natriuretic Factor (ANF) radioligand binding (ligand: [125I] ANF (rat)); format: cell membranes, Cavia porcellus, Dunkin-Hartley, Adrenal gland, Membrane; details: Not Active = under 50% inhibition at 10 µM
Substance-P receptor = Substance-P receptor (Homo sapiens, UniProt P25103); format: cell membranes, CHO, Membrane; details: cho; further: in other assays of this panel Not Active means under 50% inhibition at 10 µM
[4] = DRUGMATRIX: Purinergic P2X radioligand binding (ligand: [3H] alpha, beta-Methylene-ATP); format: cell membranes, Oryctolagus cuniculus, New Zealand albino, Urinary bladder, Membrane; details: Not Active = under 50% inhibition at 10 µM
[5] = DRUGMATRIX: Leukotriene, BLT (LTB4) radioligand binding (ligand: [3H]LTB4); format: cell membranes, Membrane; details: u-937; Not Active = under 50% inhibition at 10 µM
[6] = molecular target: Delta-type opioid receptor (Homo sapiens, UniProt P41143); format: cell membranes, HEK293, Membrane; details: hek293; further: in other assays of this panel Not Active means under 50% inhibition at 10 µM
Sequence of Delta-type opioid receptor (P41143 whole entry): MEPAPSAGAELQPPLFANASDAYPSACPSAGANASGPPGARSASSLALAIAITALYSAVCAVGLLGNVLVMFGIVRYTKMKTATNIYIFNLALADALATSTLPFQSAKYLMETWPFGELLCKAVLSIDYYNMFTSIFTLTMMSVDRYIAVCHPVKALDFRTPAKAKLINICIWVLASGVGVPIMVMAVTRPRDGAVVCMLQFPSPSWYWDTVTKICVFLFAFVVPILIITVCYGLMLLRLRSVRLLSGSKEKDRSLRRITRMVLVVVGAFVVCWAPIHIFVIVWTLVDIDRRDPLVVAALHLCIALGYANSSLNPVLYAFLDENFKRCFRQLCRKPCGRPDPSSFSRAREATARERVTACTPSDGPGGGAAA

Sequence of Substance-P receptor (P25103 whole entry): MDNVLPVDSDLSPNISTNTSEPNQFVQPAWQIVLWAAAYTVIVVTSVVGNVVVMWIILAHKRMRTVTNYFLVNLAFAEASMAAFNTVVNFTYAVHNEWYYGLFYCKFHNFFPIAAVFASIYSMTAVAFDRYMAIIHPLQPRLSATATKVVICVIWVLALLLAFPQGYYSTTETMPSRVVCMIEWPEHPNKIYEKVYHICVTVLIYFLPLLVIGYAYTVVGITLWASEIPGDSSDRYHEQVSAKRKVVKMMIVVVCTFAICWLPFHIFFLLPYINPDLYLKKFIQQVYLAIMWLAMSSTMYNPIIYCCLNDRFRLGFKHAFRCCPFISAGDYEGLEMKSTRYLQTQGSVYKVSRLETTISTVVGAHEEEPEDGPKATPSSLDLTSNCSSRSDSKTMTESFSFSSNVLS
Sequence of 5-hydroxytryptamine receptor 2B (P41595 whole entry): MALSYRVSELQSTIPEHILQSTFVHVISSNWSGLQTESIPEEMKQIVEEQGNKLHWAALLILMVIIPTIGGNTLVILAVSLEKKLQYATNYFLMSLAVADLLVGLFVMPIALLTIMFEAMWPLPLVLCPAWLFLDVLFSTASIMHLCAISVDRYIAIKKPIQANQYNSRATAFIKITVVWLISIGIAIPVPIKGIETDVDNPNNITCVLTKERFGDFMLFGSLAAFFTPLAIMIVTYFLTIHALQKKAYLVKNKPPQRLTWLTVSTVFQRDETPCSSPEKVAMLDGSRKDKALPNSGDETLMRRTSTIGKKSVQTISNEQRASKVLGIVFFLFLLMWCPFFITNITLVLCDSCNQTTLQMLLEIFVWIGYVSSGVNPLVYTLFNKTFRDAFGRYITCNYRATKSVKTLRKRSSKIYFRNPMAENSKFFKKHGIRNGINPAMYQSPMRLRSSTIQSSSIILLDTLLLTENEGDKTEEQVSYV

SMILES | IC50 (B2 bradykinin receptor) | IC50 ([1]; cho-k1) | IC50 [2] | Ki [2] | IC50 (Carbonic anhydrase 2) | IC50 [3] | Ki [3] | IC50 (Substance-P receptor) | IC50 [4] | Ki [4] | IC50 [5] | Ki [5] | IC50 [6] | IC50 ([1]; read-out: IC50) [nM] | Ki [1] [nM]
Cc1c2oc3c(C)ccc(C(=O)N[C@@H]4C(=O)N[C@H](C(C)C)C(=O)N5CCC[C@H]5C(=O)N(C)CC(=O)N(C)[C@@H](C(C)C)C(=O)O[C@@H]4C)c3nc-2c(C(=O)N[C@@H]2C(=O)N[C@H](C(C)C)C(=O)N3CCC[C@H]3C(=O)N(C)CC(=O)N(C)[C@@H](C(C)C)C(=O)O[C@@H]2C)c(N)c1=O [DACTINOMYCIN] (I: T[dV]P[Sar][NMeV] / II: T[dV]P[Sar][NMeV]; ester I:1-I:C, II:1-II:C; linker I:N-II:N via Actinocin(1to9)) | Not Active | Not Active | Not Active | Not Active | Not Active | Not Active | Not Active | Not Active | Not Active | Not Active | Not Active | Not Active | Not Active |  | 
Cc1c(O)c(=O)ccn1C [DEFERIPRONE] | Not Active | Not Active | Not Active | Not Active | Not Active | Not Active | Not Active | Not Active | Not Active | Not Active | Not Active | Not Active | Not Active |  | 
CNCCCN1c2ccccc2CCc2ccccc21 [DESIPRAMINE] | Not Active | Not Active | Not Active | Not Active | Not Active | Not Active | Not Active | Not Active | Not Active | Not Active | Not Active | Not Active | Not Active |  | 
O=c1oc2ccccc2c(O)c1Cc1c(O)c2ccccc2oc1=O [DICUMAROL] | Not Active | Not Active | Not Active | Not Active | Not Active | Not Active | Not Active | Not Active | Not Active | Not Active | Not Active | Not Active | Not Active |  | 
C[C@H]1O[C@@H](O[C@H]2[C@@H](O)C[C@H](O[C@H]3[C@@H](O)C[C@H](O[C@H]4CC[C@@]5(C)[C@H](CC[C@@H]6[C@@H]5C[C@@H](O)[C@]5(C)[C@@H](C7=CC(=O)OC7)CC[C@]65O)C4)O[C@@H]3C)O[C@@H]2C)C[C@H](O)[C@@H]1O [DIGOXIN] | Not Active | Not Active | Not Active | Not Active | Not Active | Not Active | Not Active | Not Active | Not Active | Not Active | Not Active | Not Active | Not Active |  | 
CC(C)[C@@]1(NC(=O)[C@@H]2C[C@@H]3c4cccc5[nH]cc(c45)C[C@H]3N(C)C2)O[C@@]2(O)[C@@H]3CCCN3C(=O)[C@H](Cc3ccccc3)N2C1=O.CS(=O)(=O)O [DIHYDROERGOCRISTINE MESYLATE] | Not Active |  | Not Active | Not Active | Not Active | Not Active | Not Active | Not Active | Not Active | Not Active | Not Active | Not Active | Not Active | 6.6 | 4.2
CC(=O)O[C@@]12CO[C@@H]1C[C@H](O)[C@@]1(C)C(=O)[C@H](O)C3=C(C)[C@@H](OC(=O)[C@H](O)[C@@H](NC(=O)OC(C)(C)C)c4ccccc4)C[C@@](O)([C@@H](OC(=O)c4ccccc4)[C@H]21)C3(C)C.O.O.O [DOCETAXEL] | Not Active | Not Active | Not Active | Not Active | Not Active | Not Active | Not Active | Not Active | Not Active | Not Active | Not Active | Not Active | Not Active |  | 
C[C@H]1c2cccc(O)c2C(=O)C2=C(O)[C@]3(O)C(=O)C(C(N)=O)=C(O)[C@@H](N(C)C)[C@@H]3[C@@H](O)[C@@H]21.O [DOXYCYCLINE] | Not Active | Not Active | Not Active | Not Active | Not Active | Not Active | Not Active | Not Active | Not Active | Not Active | Not Active | Not Active | Not Active |  | 
O=C(CCCN1CC=C(n2c(=O)[nH]c3ccccc32)CC1)c1ccc(F)cc1 [DROPERIDOL] | Not Active |  | Not Active | Not Active | Not Active | Not Active | Not Active | Not Active | Not Active | Not Active | Not Active | Not Active | Not Active | 1340 | 854
CC(C)[C@H]1C(=O)N2CCC[C@H]2[C@]2(O)O[C@](NC(=O)[C@@H]3C=C4c5cccc6[nH]cc(c56)C[C@H]4N(C)C3)(C(C)C)C(=O)N12 [ERGOCORNINE] | Not Active |  | Not Active | Not Active | Not Active | Not Active | Not Active | Not Active | Not Active | Not Active | Not Active | Not Active | Not Active | 11 | 6.86
OC(Cn1cncn1)(Cn1cncn1)c1ccc(F)cc1F [FLUCONAZOLE] | Not Active | Not Active | Not Active | Not Active | Not Active | Not Active | Not Active | Not Active | Not Active | Not Active | Not Active | Not Active | Not Active |  | 
CC(C)C(=O)Nc1ccc([N+](=O)[O-])c(C(F)(F)F)c1 [FLUTAMIDE] | Not Active | Not Active | Not Active | Not Active | Not Active | Not Active | Not Active | Not Active | Not Active | Not Active | Not Active | Not Active | Not Active |  | 
N=C(N)NCCN1CCCCCCC1 [GUANETHIDINE] | Not Active | Not Active | Not Active | Not Active | Not Active | Not Active | Not Active | Not Active | Not Active | Not Active | Not Active | Not Active | Not Active |  | 
CC1(C)O[C@@H]2C[C@H]3[C@@H]4CCC5=CC(=O)CC[C@]5(C)[C@@]4(F)[C@@H](O)C[C@]3(C)[C@]2(C(=O)CCl)O1 [HALCINONIDE] | Not Active | Not Active | Not Active | Not Active | Not Active | Not Active | Not Active | Not Active | Not Active | Not Active | Not Active | Not Active | Not Active |  | 
O=c1[nH]c(=O)n([C@H]2C[C@H](O)[C@@H](CO)O2)cc1I [IDOXURIDINE] | Not Active | Not Active | Not Active | Not Active | Not Active | Not Active | Not Active | Not Active | Not Active | Not Active | Not Active | Not Active | Not Active |  | 
CC1Cc2ccccc2N1NC(=O)c1ccc(Cl)c(S(N)(=O)=O)c1 (configuration not stated) [INDAPAMIDE] | Not Active | Not Active | Not Active | Not Active | Not Active | Not Active | Not Active | Not Active | Not Active | Not Active | Not Active | Not Active | Not Active |  | 
Nc1nc(N)nc(-c2cc(Cl)ccc2Cl)n1.O=C(O)/C=C\C(=O)O [IRSOGLADINE MALEATE] | Not Active | Not Active | Not Active | Not Active | Not Active | Not Active | Not Active | Not Active | Not Active | Not Active | Not Active | Not Active | Not Active |  | 
CCC(C)n1ncn(-c2ccc(N3CCN(c4ccc(OCC5COC(Cn6cncn6)(c6ccc(Cl)cc6Cl)O5)cc4)CC3)cc2)c1=O (configuration not stated) [ITRACONAZOLE] | Not Active | Not Active | Not Active | Not Active | Not Active | Not Active | Not Active | Not Active | Not Active | Not Active | Not Active | Not Active | Not Active |  | 
